In test [1] the target is T1, Adenosine A2A receptor (Homo sapiens, UniProt P29274). The experiment in a line: Adenosine A2A receptor competitive binding assay (Tag-lite HTRF). To be noted: Tag-lite adenosine A2A receptor ligand binding. Summed up: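 Tag-lite HTRF competition: donor-labelled cells expressing human A2A were mixed with serially diluted compounds (DMSO 0.6% in dilutions) and red fluorescent A2A antagonist ligand (60 nM stock). Incubated 2 h at room temperature before HTRF readout.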

The target in test [2] is T1, Adenosine A2A receptor. Briefly: cAMP assay in 293A cells stably expressing the adenosine A2A receptor (CGS21680 stimulation, HTRF). The class given is cell-based. Also noted: expressed in transfected cells; host or cells: 293A cells (Invitrogen, Cat# R705-07) infected with A2A-expressing lentivirus (custom packaged by Biosettia), puromycin selected. To be noted: 0.1% BSA.

Test [3] concerns p-CREB (phosphorylated cAMP response-element binding protein) in human whole blood. The experiment in a line: p-CREB assay in human whole blood by flow cytometry (NECA stimulation, CD4 staining). To be noted: Homo sapiens. The class given is cell-based. The procedure, abridged:
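Fresh human whole blood preincubated 1 h at room temperature with compounds (11-point 1:3 series from 30 uM) plus adenosine deaminase, then stimulated 30 min with NECA and Rolipram (10× additions of 50 uM stocks). Cells lysed/fixed, permeabilised, stained for p-CREB and CD4, read by flow cytometry.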
For orientation: In flow cytometry, cells or beads pass a laser one at a time.

[4] abbreviates: 2 h room temperature, values separated by / are repeat determinations.
Where [5] appears, read: 293A-A2AR cells, 8 nM CGS, values separated by / are repeat determinations, read-out: cAMP (nM) 0.1% BSA, 8 nM CGS.
Where [6] appears, read: 293A-A2AR cells, 1 uM CGS, values separated by / are repeat determinations, read-out: cAMP (nM) 0.1% BSA, 1 uM CGS.
[7] abbreviates: values separated by / are repeat determinations.
Setting [8] is: 293A-A2AR cells, 8 nM CGS, read-out: cAMP (nM) 0.1% BSA, 8 nM CGS.
Setting [9] is: 293A-A2AR cells, 1 uM CGS, read-out: cAMP (nM) 0.1% BSA, 1 uM CGS.
Setting [10] is: 293A cells stably expressing A2A receptor, 1 uM CGS21680 stimulation, replicate values separated by /, read-out: cAMP (nM) 0.1% BSA, 1 uM CGS.
[11] abbreviates: replicate values separated by /.

Values joined by “and” are separate entries in the source; they are usually repeats but may differ in a detail not shown here. Identical values can stand only once.

T1 sequence (P29274 whole entry): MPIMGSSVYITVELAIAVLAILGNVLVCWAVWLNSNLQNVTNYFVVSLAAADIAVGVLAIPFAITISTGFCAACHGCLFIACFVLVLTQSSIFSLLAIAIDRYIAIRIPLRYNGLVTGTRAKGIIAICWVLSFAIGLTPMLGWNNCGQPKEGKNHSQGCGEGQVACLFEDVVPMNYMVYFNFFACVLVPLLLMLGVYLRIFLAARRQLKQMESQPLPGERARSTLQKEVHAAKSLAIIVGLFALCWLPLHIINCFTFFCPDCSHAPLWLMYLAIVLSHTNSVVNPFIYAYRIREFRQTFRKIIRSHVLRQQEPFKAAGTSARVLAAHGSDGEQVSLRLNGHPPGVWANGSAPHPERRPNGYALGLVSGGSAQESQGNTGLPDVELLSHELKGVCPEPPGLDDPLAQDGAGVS

Turning to `Cc1cc(-c2c(OCC3CCOCC3)nc(N)nc2-c2ccc(F)cc2)cc(C(F)F)n1` [Example 55, 5-(2-(difluoromethyl)-6-methylpyridin-4-yl)-4-(4-fluorophenyl)-6-((tetrahydro-2H-pyran-4-yl)methoxy)pyrimidin-2-amine], the IC50 in test [1] (setting [4]) was 0.7 nM and 5.4 nM; in test [2] (setting [5]), 0.54 nM and 0.49 nM; in test [2] (setting [6]) it was 96 nM; in test [3] (setting [7]), 93 nM.
As for `Cc1cc(-c2c(OCCN(C)c3ccccn3)nc(N)nc2-c2ccc(F)cc2)cc(C(F)F)n1` [Example 79, 5-(2-(difluoromethyl)-6-methylpyridin-4-yl)-4-(4-fluorophenyl)-6-(2-(methyl(pyridin-2-yl)amino)ethoxy)pyrimidin-2-amine], the IC50 in test [1] (setting [4]) came out at 0.51 nM; in test [2] (setting [6]) it was 1 nM; in test [3] (setting [7]), 11.2 nM.
As to `COCC(O)COc1nc(N)nc(-c2ccc(F)cc2)c1-c1cc(C)nc(C(F)F)c1` (centres unmarked) [Example 85, 1-((2-amino-5-(2-(difluoromethyl)-6-methylpyridin-4-yl)-6-(4-fluorophenyl)pyrimidin-4-yl)oxy)-3-methoxypropan-2-ol], the IC50 in test [1] (setting [4]) came to 4.2 nM; in test [3] (setting [7]), 469 nM.
With `Cc1cc(-c2c(OCc3ccccn3)nc(N)nc2-c2ccc(F)cc2)cc(C(F)F)n1` [Example 95, 5-(2-(difluoromethyl)-6-methylpyridin-4-yl)-4-(4-fluorophenyl)-6-(pyridin-2-ylmethoxy)pyrimidin-2-amine], the IC50 came out at 0.24 nM in test [1] (setting [4]), 12 nM in test [2] (setting [6]) and 14 nM in test [3] (setting [7]).
In the case of `Cc1cc(-c2c(OCCNS(N)(=O)=O)nc(N)nc2-c2ccc(F)cc2)cc(C(F)(F)F)n1` [Example 111], the IC50 in test [1] (setting [4]) was 4.1 nM; in test [2] (setting [5]), 2.2 nM and 1.1 nM; in test [3] (setting [7]), 1780 nM.
`CNS(=O)(=O)NCCOc1nc(N)nc(-c2ccccc2)c1-c1cc(C)nc(C(F)(F)F)c1` [Example 121]: the IC50 was 3.9 nM in test [1] (setting [4]); 1.5 nM and 1.4 nM in test [2] (setting [5]); 55 nM and 139 nM in test [2] (setting [6]); 478 nM in test [3] (setting [7]).
Take `Cc1cc(-c2c(OCCn3ccccc3=O)nc(N)nc2-c2ccc(F)cc2)cc(C(F)F)n1` [Example 122, 1-(2-((2-amino-5-(2-(difluoromethyl)-6-methylpyridin-4-yl)-6-(4-fluorophenyl)pyrimidin-4-yl)oxy)ethyl)pyridin-2(1H)-one]: the IC50 in test [1] (setting [4]) was 1.8 nM; in test [2] (setting [5]), 0.88 nM and 0.69 nM; in test [2] (setting [6]) it was 35 nM and 53 nM; in test [3] (setting [7]), 63 nM.
For the molecule `CCc1c(COc2nc(N)nc(-c3ccc(F)cc3)c2-c2cc(C)nc(C(F)F)c2)nnn1CC` [Example 135, 4-((1,5-diethyl-1H-1,2,3-triazol-4-yl)methoxy)-5-(2-(difluoromethyl)-6-methylpyridin-4-yl)-6-(4-fluorophenyl)pyrimidin-2-amine], the IC50 was 1.2 nM and 4.3 nM in test [1] (setting [4]); 3.1 nM and 2.6 nM in test [2] (setting [5]); 77 nM in test [2] (setting [6]); 93.2 nM in test [3] (setting [7]).
In the case of `CCc1c(COc2nc(N)nc(-c3ccc(F)cc3)c2-c2cc(C)nc(C(F)F)c2)nnn1C` [Example 136, 5-(2-(difluoromethyl)-6-methylpyridin-4-yl)-4-((5-ethyl-1-methyl-1H-1,2,3-triazol-4-yl)methoxy)-6-(4-fluorophenyl)pyrimidin-2-amine], the IC50 in test [1] (setting [4]) is 0.6 nM and 1.1 nM; in test [2] (setting [5]), 2.3 nM; in test [2] (setting [6]), 29 nM and 27 nM; in test [3] (setting [7]), 15.8 nM.
Regarding `Cc1cc(-c2c(OCCN(C)c3cccc(OCCO)n3)nc(N)nc2-c2ccc(F)cc2)cc(C(F)F)n1` [Example 154, 2-((6-((2-((2-amino-5-(2-(difluoromethyl)-6-methylpyridin-4-yl)-6-(4-fluorophenyl)pyrimidin-4-yl)oxy)ethyl)(methyl)amino)pyridin-2-yl)oxy)ethan-1-ol], the IC50 in test [1] (setting [4]) is 1.4 nM and 4.2 nM; in test [2] (setting [5]), 1.3 nM; in test [2] (setting [6]), 11 nM; in test [3] (setting [7]), 41.6 nM.
As to `Cc1cc(-c2c(OCc3nccn3CCC(=O)O)nc(N)nc2-c2ccc(F)cc2)cc(C(F)F)n1` [Example 204, 3-(2-(((2-amino-5-(2-(difluoromethyl)-6-methylpyridin-4-yl)-6-(4-fluorophenyl)pyrimidin-4-yl)oxy)methyl)-1H-imidazol-1-yl)propanoic acid], the IC50 in test [1] (HTRF) was 13 nM; in test [2] (setting [8]), 24 nM; in test [3], 456 nM.
For the molecule `Cc1cc(-c2c(OCc3nccn3C(C)CO)nc(N)nc2-c2ccc(F)cc2)cc(C(F)F)n1` (centres unmarked) [Example 209, 2-(2-(((2-amino-5-(2-(difluoromethyl)-6-methylpyridin-4-yl)-6-(4-fluorophenyl)pyrimidin-4-yl)oxy)methyl)-1H-imidazol-1-yl)propan-1-ol], the IC50 in test [1] (HTRF) is 1.9 nM and 4.2 nM; in test [2] (setting [8]), 1.6 nM and 2.4 nM; in test [2] (setting [9]) it was 84 nM and 97 nM; in test [3], 125 nM.
For `Cc1cc(-c2c(OCc3nccn3CCCC(=O)O)nc(N)nc2-c2ccc(F)cc2)cc(C(F)F)n1` [Example 219, 4-(2-(((2-amino-5-(2-(difluoromethyl)-6-methylpyridin-4-yl)-6-(4-fluorophenyl)pyrimidin-4-yl)oxy)methyl)-1H-imidazol-1-yl)butanoic acid], the values for the IC50 in test [1] (HTRF) and in test [3] were 9 nM and 170 nM, respectively.
Regarding `Cc1cc(-c2c(OCc3cccc(C(C)(C)O)n3)nc(N)nc2-c2ccc(F)cc2)cc(C(F)F)n1` [Example 225], the IC50 in test [1] (HTRF) was 18.1 nM; in test [2] (setting [9]), 136 nM and 200 nM and 176 nM; in test [3], 15.1 nM.
As to `Cc1cc(-c2c(OCc3cccc(C4(CCO)CCOC4=O)n3)nc(N)nc2-c2ccc(F)cc2)cc(C(F)F)n1` (centres unmarked) [Example 439, 3-(6-(((2-amino-5-(2-(difluoromethyl)-6-methylpyridin-4-yl)-6-(4-fluorophenyl)pyrimidin-4-yl)oxy)methyl)pyridin-2-yl)-3-(2-hydroxyethyl)dihydrofuran-2(3H)-one], the IC50 in test [2] (setting [10]) turned out to be 103 nM; in test [3] (setting [11]) it was 252 nM.
The corresponding values for `CNC(=O)CNCc1cccc(COc2nc(N)nc(-c3ccc(F)cc3)c2-c2cc(C)nc(C(F)F)c2)n1` [Example 440, 2-(((6-(((2-amino-5-(2-(difluoromethyl)-6-methylpyridin-4-yl)-6-(4-fluorophenyl)pyrimidin-4-yl)oxy)methyl)pyridin-2-yl)methyl)amino)-N-methylacetamide] are 215 nM and 95 nM.
The like results for `Cc1cc(-c2c(OCc3cccc(NC(CO)CO)n3)nc(N)nc2-c2ccc(F)cc2)cc(C(F)F)n1` [Example 442, 2-((6-(((2-amino-5-(2-(difluoromethyl)-6-methylpyridin-4-yl)-6-(4-fluorophenyl)pyrimidin-4-yl)oxy)methyl)pyridin-2-yl)amino)propane-1,3-diol] were, in that order, 177 nM and 208 nM.
